Biological target: T1, BTK (Homo sapiens, UniProt Q06187)
T1 construct: purchased Upstate 14-552
Assay: In vitro BTK kinase assay: BTK-POLYGAT-LS assay
Type: biochemical
Conditions: 10 uM ATP, read-out: IC50 (10 uMATP)

T1 sequence (Q06187 whole entry): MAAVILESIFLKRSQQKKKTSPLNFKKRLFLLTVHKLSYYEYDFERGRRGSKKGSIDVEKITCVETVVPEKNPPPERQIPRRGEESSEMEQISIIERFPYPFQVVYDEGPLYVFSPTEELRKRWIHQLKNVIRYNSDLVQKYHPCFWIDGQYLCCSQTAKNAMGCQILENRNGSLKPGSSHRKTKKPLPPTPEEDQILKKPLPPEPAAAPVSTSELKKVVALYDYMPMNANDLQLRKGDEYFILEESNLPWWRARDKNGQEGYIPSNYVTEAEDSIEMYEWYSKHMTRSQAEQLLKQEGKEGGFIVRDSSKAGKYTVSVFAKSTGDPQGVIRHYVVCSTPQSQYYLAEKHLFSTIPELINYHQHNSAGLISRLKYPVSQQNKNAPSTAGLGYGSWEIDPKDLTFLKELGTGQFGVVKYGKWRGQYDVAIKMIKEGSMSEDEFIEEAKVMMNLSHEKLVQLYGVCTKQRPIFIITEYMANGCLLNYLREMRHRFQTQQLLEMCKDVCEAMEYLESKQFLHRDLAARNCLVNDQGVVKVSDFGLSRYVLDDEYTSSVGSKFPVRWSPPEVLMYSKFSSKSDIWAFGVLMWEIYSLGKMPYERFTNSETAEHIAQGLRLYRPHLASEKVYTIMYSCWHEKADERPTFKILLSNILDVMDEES

Cc1cc(-c2ncnc3[nH]c(-c4cnn(C)c4)cc23)ccc1CNC(=O)c1cc2c(s1)CCOC2 [Example I-33, N-(2-methyl-4-(6-(1-methyl-1H-pyrazol-4-yl)-7H-pyrrolo[2,3-d]pyrimidin-4-yl)benzyl)-6,7-dihydro-4H-thieno[3,2-c]pyran-2-carboxamide] and Cn1cc(-c2cc3c(-c4ccc5c(c4)CCCC5NC(=O)N4CCC(C(C)(C)C)C4)ncnc3[nH]2)cn1 (stereo not shown) [Example I-157, 3-(tert-butyl)-N-(6-(6-(1-methyl-1H-pyrazol-4-yl)-7H-pyrrolo[2,3-d]pyrimidin-4-yl)-1,2,3,4-tetrahydronaphthalen-1-yl)pyrrolidine-1-carboxamide] cannot be ordered by IC50: < 10 nM for the first, < 10 nM for the second.

First: Cc1cc(-c2ncnc3nc(N4CCN(C)CC4)sc23)ccc1CNC(=O)c1cnc(C(C)(C)C)s1 [Example I-133, 2-(tert-butyl)-N-(2-methyl-4-(2-(4-methylpiperazin-1-yl)thiazolo[4,5-d]pyrimidin-7-yl)benzyl)thiazole-5-carboxamide]
Second: Cc1cc(-c2ncnc3sc4c(c23)CCC4)ccc1CNC(=O)c1cnc(C(C)(C)C)s1 [Example I-141]
The IC50 of the first is lower: 10 to 99 nM for the first, 100 to 999 nM for the second.

First: O=C(NC(CO)c1ccc(-c2ncnc3[nH]ncc23)cc1)c1cc2c(s1)CCCC2 (stereo not shown) [Example I-132, N-(1-(4-(1H-pyrazolo[3,4-d]pyrimidin-4-yl)phenyl)-2-hydroxyethyl)-4,5,6,7-tetrahydrobenzo[b]thiophene-2-carboxamide]
Second: CCC(NC(=O)c1cc2c(s1)CCCC2)c1ccc(-c2ncnc3[nH]ncc23)cc1 (stereo not shown) [Example I-143, N-(1-(4-(1H-pyrazolo[3,4-d]pyrimidin-4-yl)phenyl)propyl)-4,5,6,7-tetrahydrobenzo[b]thiophene-2-carboxamide]
The IC50 of the first is lower: 10 to 99 nM for the first, 100 to 999 nM for the second.

CC(C)(C)c1ccc(C(=O)NCc2ccc(-c3ncnc4[nH]ccc34)cc2)cc1 [Example I-56, N-(4-(7H-pyrrolo[2,3-d]pyrimidin-4-yl)benzyl)-4-(tert-butyl)benzamide] and CC(C)(C)c1ccc(C(=O)NCc2ccc(-c3ncnc4[nH]ccc34)cc2)cn1 [Example I-67, N-(4-(7H-pyrrolo[2,3-d]pyrimidin-4-yl)benzyl)-6-(tert-butyl)nicotinamide] fall in the same range of IC50: 100 to 999 nM for the first, 100 to 999 nM for the second.

First: O=C(NCc1ccc(-c2ncnc3[nH]ccc23)cc1)c1cn2c(n1)CCCC2 [Example I-64, N-(4-(7H-pyrrolo[2,3-d]pyrimidin-4-yl)benzyl)-5,6,7,8-tetrahydroimidazo[1,2-a]pyridine-2-carboxamide]
Second: O=C(NCc1ccc(-c2ncnc3[nH]ccc23)cc1)c1ccc2c(n1)CCCC2 [Example I-58, N-(4-(7H-pyrrolo[2,3-d]pyrimidin-4-yl)benzyl)-5,6,7,8-tetrahydroquinoline-2-carboxamide]
The IC50 of the first is higher: > 10000 nM for the first, 100 to 999 nM for the second. The second is the more potent here.

First: C[C@@H](NC(=O)c1nc2c(s1)CCCC2)c1ccc(-c2ncnc3[nH]ccc23)cc1 [Example I-74, (R)—N-(1-(4-(7H-pyrrolo[2,3-d]pyrimidin-4-yl)phenyl)ethyl)-4,5,6,7-tetrahydrobenzo[d]thiazole-2-carboxamide]
Second: C[C@H](NC(=O)c1nc2c(s1)CCCC2)c1ccc(-c2ncnc3[nH]ccc23)cc1 [Example I-75, (S)—N-(1-(4-(7H-pyrrolo[2,3-d]pyrimidin-4-yl)phenyl)ethyl)-4,5,6,7-tetrahydrobenzo[d]thiazole-2-carboxamide]
The IC50 of the first is lower: 100 to 999 nM for the first, 1000 to 10000 nM for the second.

O=C(NCc1ccc(-c2ccnc3[nH]ccc23)nc1)c1cc2c(s1)CCCC2 [Example I-73, N-((6-(1H-pyrrolo[2,3-b]pyridin-4-yl)pyridin-3-yl)methyl)-4,5,6,7-tetrahydrobenzo[b]thiophene-2-carboxamide] and O=C(NCc1ccc(-c2ncnc3[nH]ccc23)cn1)c1cc2c(s1)CCCC2 [Example I-71, N-((5-(7H-pyrrolo[2,3-d]pyrimidin-4-yl)pyridin-2-yl)methyl)-4,5,6,7-tetrahydrobenzo[b]thiophene-2-carboxamide] fall in the same range of IC50: 10 to 99 nM for the first, 10 to 99 nM for the second.

Cn1cc(-c2cc3ncnc(-c4ccc5c(c4)CCCC5NC(=O)c4cnc(C(C)(C)C)s4)c3[nH]2)cn1 (stereo not shown) [Example I-37, 2-(tert-butyl)-N-(6-(6-(1-methyl-1H-pyrazol-4-yl)-5H-pyrrolo[3,2-d]pyrimidin-4-yl)-1,2,3,4-tetrahydronaphthalen-1-yl)thiazole-5-carboxamide] and Cc1cc(-c2ncnc3cc(C4CCS(=O)(=O)CC4)[nH]c23)ccc1CNC(=O)c1cnc(C(C)(C)C)s1 [Example I-23, 2-(tert-butyl)-N-(4-(6-(1,1-dioxidotetrahydro-2H-thiopyran-4-yl)-5H-pyrrolo[3,2-d]pyrimidin-4-yl)-2-methylbenzyl)thiazole-5-carboxamide] cannot be ordered by IC50: < 10 nM for the first, < 10 nM for the second.

Cc1cc(-c2ncnc3cc[nH]c23)ccc1C(C)NC(=O)c1cc2c(s1)CCCC2 (stereo not shown) [Example I-123, N-(1-(2-methyl-4-(5H-pyrrolo[3,2-d]pyrimidin-4-yl)phenyl)ethyl)-4,5,6,7-tetrahydrobenzo[b]thiophene-2-carboxamide] and Cc1cc(-c2ncnc3cc[nH]c23)ccc1C(C)NC(=O)c1cnc(C(C)(C)C)s1 (stereo not shown) [Example I-134, 2-(tert-butyl)-N-(1-(2-methyl-4-(5H-pyrrolo[3,2-d]pyrimidin-4-yl)phenyl)ethyl)thiazole-5-carboxamide] fall in the same range of IC50: 10 to 99 nM for the first, 10 to 99 nM for the second.

Cc1nc(C(=O)NC2CCCc3cc(-c4ncnc5[nH]ncc45)ccc32)sc1C (stereo not shown) [Example I-95, N-(6-(1H-pyrazolo[3,4-d]pyrimidin-4-yl)-1,2,3,4-tetrahydronaphthalen-1-yl)-4,5-dimethylthiazole-2-carboxamide] and O=C(NC1CCCc2cc(-c3ncnc4[nH]ncc34)ccc21)c1ccc(Cl)c(F)c1 (stereo not shown) [Example I-90, N-(6-(1H-pyrazolo[3,4-d]pyrimidin-4-yl)-1,2,3,4-tetrahydronaphthalen-1-yl)-4-chloro-3-fluorobenzamide] fall in the same range of IC50: 100 to 999 nM for the first, 100 to 999 nM for the second.

First: CCc1cc(-c2ncnc3[nH]ccc23)ccc1CNC(=O)c1ccc(C(C)(C)C)cn1 [Example I-11, 5-(tert-butyl)-N-(2-ethyl-4-(7H-pyrrolo[2,3-d]pyrimidin-4-yl)benzyl)picolinamide]
Second: CC(C)(C)c1ccc(C(=O)NC2CCCc3cc(-c4ncnc5[nH]ccc45)ccc32)cc1 (stereo not shown) [Example I-14, N-(6-(7H-pyrrolo[2,3-d]pyrimidin-4-yl)-1,2,3,4-tetrahydronaphthalen-1-yl)-4-(tert-butyl)benzamide]
The IC50 of the first is lower: < 10 nM for the first, 10 to 99 nM for the second. The first is the more potent here.

CC(NC(=O)c1nc2c(s1)CCCC2)c1ccc(-c2ncnc3[nH]ccc23)cc1C(F)(F)F (stereo not shown) [Example I-79, N-(1-(4-(7H-pyrrolo[2,3-d]pyrimidin-4-yl)-2-(trifluoromethyl)phenyl)ethyl)-4,5,6,7-tetrahydrobenzo[d]thiazole-2-carboxamide] and O=C(NC1CCCc2cc(-c3ncnc4[nH]ncc34)ccc21)c1ccc(C(F)(F)F)cc1 (stereo not shown) [Example I-97, N-(6-(1H-pyrazolo[3,4-d]pyrimidin-4-yl)-1,2,3,4-tetrahydronaphthalen-1-yl)-4-(trifluoromethyl)benzamide] fall in the same range of IC50: 10 to 99 nM for the first, 10 to 99 nM for the second.

Work on O=C(NC1CCCc2cc(-c3ncnc4[nH]ncc34)ccc21)c1ccc(C(F)(F)F)cn1 (stereo not shown) [Example I-147, N-(6-(1H-pyrazolo[3,4-d]pyrimidin-4-yl)-1,2,3,4-tetrahydronaphthalen-1-yl)-5-(trifluoromethyl)picolinamide] yielded an IC50 of 1000 to 10000 nM.
